Results reported in ChEMBL document CHEMBL1201862, “PubChem BioAssay data set” (2004).
Calls of active or inactive are those of the source.

Legend:
[1] = target: T1, Tyrosine-protein phosphatase non-receptor type 7 (Homo sapiens, UniProt P35236); type: functional
T1 sequence (P35236 whole entry): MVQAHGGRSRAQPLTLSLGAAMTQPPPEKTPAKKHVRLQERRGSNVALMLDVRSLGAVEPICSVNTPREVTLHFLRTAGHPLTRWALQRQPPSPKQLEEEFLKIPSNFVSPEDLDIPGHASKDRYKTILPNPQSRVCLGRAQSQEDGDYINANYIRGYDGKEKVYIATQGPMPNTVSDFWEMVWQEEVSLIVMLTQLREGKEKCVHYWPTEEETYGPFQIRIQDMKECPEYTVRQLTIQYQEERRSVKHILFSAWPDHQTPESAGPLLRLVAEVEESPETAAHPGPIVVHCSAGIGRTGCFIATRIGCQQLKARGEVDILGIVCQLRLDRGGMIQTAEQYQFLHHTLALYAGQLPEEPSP

[2] = target: T2, RNA-binding protein pos-1 (Caenorhabditis elegans, UniProt G5EF15); test: inhibitors of POS-1/mex-3 RNA binding, dose response, biochemical, fluorescence polarization (AID 1964);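 also: purified POS-1 fused to maltose binding protein made in E. coli; potency of compounds blocking POS-1 binding to fluorescent RNA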
T2 sequence (G5EF15 whole entry): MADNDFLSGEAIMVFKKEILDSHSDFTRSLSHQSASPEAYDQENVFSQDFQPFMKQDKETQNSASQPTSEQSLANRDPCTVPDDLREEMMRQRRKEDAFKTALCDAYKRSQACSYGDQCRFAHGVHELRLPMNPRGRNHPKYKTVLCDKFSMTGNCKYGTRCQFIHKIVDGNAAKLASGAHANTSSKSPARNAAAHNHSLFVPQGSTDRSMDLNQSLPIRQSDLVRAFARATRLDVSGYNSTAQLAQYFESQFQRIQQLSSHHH

Bcl-2-like protein 10 = target: T3, Bcl-2-like protein 10 (Homo sapiens, UniProt Q9HD36); test: displacers of TR3 peptide from Bcl-B, primary screen, selectivity assay for Bfl-1 inhibitor project, biochemical, fluorescence polarization, FITC-TR3 peptide (AID 748);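 also: fluorescence polarization from a fluorescein-labelled TR3 peptide binding purified Bcl-B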
T3 sequence (Q9HD36 whole entry): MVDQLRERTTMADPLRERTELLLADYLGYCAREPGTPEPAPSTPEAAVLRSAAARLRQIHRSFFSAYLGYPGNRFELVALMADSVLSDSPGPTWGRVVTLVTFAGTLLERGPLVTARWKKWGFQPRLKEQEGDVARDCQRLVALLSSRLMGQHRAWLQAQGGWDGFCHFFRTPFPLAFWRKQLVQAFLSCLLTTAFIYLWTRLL

[3] = target: Glyceraldehyde-3-phosphate dehydrogenase (Homo sapiens, UniProt P04406)
[4] = target: T4, Zinc finger protein mex-5 (Caenorhabditis elegans, UniProt Q9XUB2); test: MEX-5/TCR-2 RNA interaction inhibitors, dose response, biochemical, C. elegans, fluorescence polarization (AID 1960)
T4 sequence (Q9XUB2 whole entry): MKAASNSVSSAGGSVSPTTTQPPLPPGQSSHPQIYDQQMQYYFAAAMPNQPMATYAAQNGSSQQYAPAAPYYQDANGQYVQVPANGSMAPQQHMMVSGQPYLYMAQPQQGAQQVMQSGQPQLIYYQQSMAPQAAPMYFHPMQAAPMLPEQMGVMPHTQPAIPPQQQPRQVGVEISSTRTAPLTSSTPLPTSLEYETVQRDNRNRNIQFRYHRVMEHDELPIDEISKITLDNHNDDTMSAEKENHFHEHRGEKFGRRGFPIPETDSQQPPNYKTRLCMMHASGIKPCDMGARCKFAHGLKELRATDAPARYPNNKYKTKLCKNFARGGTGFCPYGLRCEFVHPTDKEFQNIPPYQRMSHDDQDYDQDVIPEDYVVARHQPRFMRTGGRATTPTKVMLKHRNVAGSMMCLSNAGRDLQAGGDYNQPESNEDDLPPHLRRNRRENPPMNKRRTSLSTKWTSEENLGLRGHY

[5] = target: Heat shock cognate 71 kDa protein (Homo sapiens, UniProt P11142); test: In Vitro Hsc70 Dose Response Fluorescence Polarization Assay. [Related pubchem assays: 1072 ]
Large T antigen = Large T antigen (Simian virus 40, UniProt P03070); type: functional, Betapolyomavirus macacae;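 also: Confirmatory-stage PubChem screen for compounds that inhibit SV40 T antigen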
[6] = target: Heat shock 70 kDa protein 1A (Homo sapiens, UniProt P0DMV8); test: Hsp70 inhibitors, SAR follow-up, biochemical, fluorescence polarization (AID 1072)
[7] = target: T5, Dual specificity protein phosphatase 6 (Rattus norvegicus, UniProt Q64346)
T5 sequence (Q64346 whole entry): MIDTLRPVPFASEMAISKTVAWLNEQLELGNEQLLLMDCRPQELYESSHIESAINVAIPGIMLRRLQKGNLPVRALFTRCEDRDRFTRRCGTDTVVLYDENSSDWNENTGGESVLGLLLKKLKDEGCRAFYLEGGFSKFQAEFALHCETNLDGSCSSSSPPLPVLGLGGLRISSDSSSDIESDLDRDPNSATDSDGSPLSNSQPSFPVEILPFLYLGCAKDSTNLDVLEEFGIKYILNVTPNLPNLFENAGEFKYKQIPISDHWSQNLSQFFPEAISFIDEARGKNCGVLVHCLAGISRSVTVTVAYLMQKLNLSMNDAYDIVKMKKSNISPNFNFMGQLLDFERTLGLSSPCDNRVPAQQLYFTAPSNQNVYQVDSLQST

[8] = target: T5, Dual specificity protein phosphatase 6; test: MKP-3 phosphatase inhibitors, primary screen, biochemical, rat enzyme, in vitro (AID 425)
[9] = target: Induced myeloid leukemia cell differentiation protein Mcl-1 (Homo sapiens, UniProt Q07820); type: functional
[10] = target: Eukaryotic translation initiation factor 4E (Mus musculus, UniProt P63073); test: eIF4E–eIF4G protein interaction inhibitors, dose response, biochemical, TR-FRET (AID 855); type: functional;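 also: potency for disrupting eIF4E binding to eIF4GI seen as loss of FRET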
[11] = target: T5, Dual specificity protein phosphatase 6; type: functional
[12] = target: T6, DNA dC->dU-editing enzyme APOBEC-3A (Homo sapiens, UniProt P31941); test: SAR analysis of small molecule inhibitors of APOBEC3A DNA Deaminase via a fluorescence-based single-stranded DNA deaminase assay - Set 2.; type: functional; conditions: read-out: IC50_Mean
[13] = target: T7, DNA dC->dU-editing enzyme APOBEC-3G (Homo sapiens, UniProt Q9HC16); test: SAR analysis of small molecule inhibitors of APOBEC3G DNA Deaminase via a fluorescence-based single-stranded DNA deaminase assay - Set 2.; type: functional; conditions: read-out: IC50_Mean
[14] = target: T7, DNA dC->dU-editing enzyme APOBEC-3G; test: APOBEC3G deaminase inhibitors, SAR follow-up, biochemical, fluorescence, single-stranded DNA substrate (AID 602136); type: functional; conditions: read-out: IC50_Mean
[15] = target: T6, DNA dC->dU-editing enzyme APOBEC-3A; test: SAR analysis of small molecule inhibitors of APOBEC3A DNA Deaminase via a fluorescence-based single-stranded DNA deaminase assay.; type: functional; conditions: read-out: IC50_Mean
[16] = SAR analysis of small molecule activators of Apaf-1 using a LZ-Caspase-9/Caspase-3 Fluorescent Selectivity assay - Set 2.; type: functional; conditions: read-out: EC50_Mean
[17] = target: T8, Apoptotic protease-activating factor 1 (Homo sapiens, UniProt O14727); test: SAR analysis of small molecule Activators of Apaf-1 in a Fluorescent assay - set 2.; type: functional; conditions: read-out: EC50_Mean
T8 sequence (O14727 whole entry): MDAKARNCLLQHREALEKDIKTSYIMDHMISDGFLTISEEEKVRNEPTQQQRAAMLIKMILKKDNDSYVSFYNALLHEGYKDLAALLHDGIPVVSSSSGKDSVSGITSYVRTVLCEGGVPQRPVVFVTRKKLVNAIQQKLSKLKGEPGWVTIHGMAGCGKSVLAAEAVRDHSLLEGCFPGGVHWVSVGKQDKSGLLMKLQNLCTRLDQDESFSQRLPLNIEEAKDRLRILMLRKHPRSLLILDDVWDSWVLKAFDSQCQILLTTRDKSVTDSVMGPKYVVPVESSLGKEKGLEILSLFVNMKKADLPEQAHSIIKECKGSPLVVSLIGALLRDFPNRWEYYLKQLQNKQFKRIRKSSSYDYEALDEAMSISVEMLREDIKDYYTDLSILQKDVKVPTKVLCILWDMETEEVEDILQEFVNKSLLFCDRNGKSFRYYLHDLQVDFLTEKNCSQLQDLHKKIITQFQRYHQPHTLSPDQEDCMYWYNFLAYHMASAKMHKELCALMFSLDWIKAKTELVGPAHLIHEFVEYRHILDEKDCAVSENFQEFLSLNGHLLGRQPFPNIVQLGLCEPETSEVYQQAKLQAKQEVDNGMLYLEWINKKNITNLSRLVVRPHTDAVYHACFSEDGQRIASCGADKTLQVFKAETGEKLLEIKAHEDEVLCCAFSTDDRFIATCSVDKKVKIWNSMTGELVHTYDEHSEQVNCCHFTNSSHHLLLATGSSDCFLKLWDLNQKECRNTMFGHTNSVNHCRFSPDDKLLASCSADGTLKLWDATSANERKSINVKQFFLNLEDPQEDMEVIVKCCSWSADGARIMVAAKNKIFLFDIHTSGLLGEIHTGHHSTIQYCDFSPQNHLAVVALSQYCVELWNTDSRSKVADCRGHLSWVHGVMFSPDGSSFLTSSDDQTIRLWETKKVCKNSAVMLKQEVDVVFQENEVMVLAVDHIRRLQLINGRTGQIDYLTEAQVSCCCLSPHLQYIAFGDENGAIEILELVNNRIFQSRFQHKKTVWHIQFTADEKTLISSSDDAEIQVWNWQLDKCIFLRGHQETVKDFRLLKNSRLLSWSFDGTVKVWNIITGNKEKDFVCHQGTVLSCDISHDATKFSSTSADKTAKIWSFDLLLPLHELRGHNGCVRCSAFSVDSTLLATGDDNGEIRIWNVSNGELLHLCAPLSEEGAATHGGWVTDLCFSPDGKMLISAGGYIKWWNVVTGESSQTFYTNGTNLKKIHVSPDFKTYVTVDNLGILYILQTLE

T7 sequence (Q9HC16 whole entry): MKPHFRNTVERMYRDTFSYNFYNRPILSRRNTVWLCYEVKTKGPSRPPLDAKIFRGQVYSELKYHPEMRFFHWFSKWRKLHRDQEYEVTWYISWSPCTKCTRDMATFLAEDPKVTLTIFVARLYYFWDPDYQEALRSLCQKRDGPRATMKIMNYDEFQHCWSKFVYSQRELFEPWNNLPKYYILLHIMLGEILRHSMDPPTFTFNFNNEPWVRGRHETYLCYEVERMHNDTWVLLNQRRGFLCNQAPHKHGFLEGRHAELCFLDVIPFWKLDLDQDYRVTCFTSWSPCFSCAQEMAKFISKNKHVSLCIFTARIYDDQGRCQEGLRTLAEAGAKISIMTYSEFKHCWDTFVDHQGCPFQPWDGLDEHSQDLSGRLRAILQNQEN
T6 sequence (P31941 whole entry): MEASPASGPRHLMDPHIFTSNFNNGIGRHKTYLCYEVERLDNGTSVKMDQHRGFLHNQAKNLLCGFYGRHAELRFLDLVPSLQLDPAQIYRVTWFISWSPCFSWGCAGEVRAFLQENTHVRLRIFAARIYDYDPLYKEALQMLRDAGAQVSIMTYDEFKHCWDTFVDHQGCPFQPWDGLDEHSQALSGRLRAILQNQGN
Heat shock 70 kDa protein 1A, sequence (P0DMV8 whole entry): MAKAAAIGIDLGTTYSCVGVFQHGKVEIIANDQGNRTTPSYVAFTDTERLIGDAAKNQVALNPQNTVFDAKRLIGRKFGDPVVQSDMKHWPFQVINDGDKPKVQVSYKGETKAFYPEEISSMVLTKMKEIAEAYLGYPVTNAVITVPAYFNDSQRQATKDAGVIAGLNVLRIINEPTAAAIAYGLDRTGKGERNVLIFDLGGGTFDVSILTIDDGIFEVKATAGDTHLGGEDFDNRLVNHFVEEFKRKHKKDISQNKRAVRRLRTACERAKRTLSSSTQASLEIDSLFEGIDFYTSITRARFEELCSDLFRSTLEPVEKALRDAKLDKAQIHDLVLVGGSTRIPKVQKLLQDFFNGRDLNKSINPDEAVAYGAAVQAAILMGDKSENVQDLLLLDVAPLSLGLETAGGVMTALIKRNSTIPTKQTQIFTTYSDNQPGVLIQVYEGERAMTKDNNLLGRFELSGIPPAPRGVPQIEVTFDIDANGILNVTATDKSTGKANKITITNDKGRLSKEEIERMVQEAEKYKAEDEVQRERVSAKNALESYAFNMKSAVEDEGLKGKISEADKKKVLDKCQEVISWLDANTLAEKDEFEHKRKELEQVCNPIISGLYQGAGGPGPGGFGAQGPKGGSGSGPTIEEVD
Eukaryotic translation initiation factor 4E, sequence (P63073 whole entry): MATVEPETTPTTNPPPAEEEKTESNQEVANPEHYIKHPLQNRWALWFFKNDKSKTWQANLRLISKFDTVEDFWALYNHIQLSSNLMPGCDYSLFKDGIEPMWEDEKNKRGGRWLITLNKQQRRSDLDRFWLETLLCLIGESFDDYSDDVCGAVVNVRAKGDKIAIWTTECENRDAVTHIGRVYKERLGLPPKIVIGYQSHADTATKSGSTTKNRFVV
Induced myeloid leukemia cell differentiation protein Mcl-1, sequence (Q07820 whole entry): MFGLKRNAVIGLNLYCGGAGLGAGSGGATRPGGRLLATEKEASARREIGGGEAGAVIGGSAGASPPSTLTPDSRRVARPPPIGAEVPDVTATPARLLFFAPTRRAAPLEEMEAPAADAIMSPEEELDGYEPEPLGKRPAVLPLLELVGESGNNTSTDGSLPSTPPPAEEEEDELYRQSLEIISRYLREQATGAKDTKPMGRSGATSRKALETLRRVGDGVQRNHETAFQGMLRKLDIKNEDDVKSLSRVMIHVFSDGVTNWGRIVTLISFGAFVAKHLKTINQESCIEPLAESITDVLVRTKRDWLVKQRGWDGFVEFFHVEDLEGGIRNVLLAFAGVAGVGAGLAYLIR
Glyceraldehyde-3-phosphate dehydrogenase, sequence (P04406 whole entry): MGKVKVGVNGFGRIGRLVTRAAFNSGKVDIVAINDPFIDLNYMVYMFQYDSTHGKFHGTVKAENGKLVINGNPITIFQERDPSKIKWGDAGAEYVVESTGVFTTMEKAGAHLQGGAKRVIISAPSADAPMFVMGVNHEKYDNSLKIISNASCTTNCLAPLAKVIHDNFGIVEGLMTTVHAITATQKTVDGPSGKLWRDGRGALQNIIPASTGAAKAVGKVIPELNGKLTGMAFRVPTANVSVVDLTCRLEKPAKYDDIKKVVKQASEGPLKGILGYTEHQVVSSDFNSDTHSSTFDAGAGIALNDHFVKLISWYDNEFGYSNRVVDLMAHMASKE
Large T antigen, sequence (P03070 whole entry): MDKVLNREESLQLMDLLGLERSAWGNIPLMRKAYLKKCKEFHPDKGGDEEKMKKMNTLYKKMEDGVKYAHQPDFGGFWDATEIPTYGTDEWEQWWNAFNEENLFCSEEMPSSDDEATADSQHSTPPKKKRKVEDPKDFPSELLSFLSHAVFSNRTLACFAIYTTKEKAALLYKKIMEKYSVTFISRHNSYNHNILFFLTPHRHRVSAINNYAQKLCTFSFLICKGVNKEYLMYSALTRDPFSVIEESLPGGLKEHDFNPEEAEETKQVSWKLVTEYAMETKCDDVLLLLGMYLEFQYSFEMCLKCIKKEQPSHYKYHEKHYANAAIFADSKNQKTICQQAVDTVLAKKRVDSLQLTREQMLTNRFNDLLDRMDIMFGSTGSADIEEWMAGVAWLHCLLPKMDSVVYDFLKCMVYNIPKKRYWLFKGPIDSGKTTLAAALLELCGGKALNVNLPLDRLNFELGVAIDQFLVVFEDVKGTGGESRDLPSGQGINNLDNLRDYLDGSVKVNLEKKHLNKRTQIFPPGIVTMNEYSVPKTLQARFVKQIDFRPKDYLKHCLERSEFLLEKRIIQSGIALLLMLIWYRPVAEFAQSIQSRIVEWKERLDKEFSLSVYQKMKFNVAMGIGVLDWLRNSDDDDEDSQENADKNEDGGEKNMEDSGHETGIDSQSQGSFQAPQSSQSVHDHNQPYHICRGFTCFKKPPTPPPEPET
Heat shock cognate 71 kDa protein, sequence (P11142 whole entry): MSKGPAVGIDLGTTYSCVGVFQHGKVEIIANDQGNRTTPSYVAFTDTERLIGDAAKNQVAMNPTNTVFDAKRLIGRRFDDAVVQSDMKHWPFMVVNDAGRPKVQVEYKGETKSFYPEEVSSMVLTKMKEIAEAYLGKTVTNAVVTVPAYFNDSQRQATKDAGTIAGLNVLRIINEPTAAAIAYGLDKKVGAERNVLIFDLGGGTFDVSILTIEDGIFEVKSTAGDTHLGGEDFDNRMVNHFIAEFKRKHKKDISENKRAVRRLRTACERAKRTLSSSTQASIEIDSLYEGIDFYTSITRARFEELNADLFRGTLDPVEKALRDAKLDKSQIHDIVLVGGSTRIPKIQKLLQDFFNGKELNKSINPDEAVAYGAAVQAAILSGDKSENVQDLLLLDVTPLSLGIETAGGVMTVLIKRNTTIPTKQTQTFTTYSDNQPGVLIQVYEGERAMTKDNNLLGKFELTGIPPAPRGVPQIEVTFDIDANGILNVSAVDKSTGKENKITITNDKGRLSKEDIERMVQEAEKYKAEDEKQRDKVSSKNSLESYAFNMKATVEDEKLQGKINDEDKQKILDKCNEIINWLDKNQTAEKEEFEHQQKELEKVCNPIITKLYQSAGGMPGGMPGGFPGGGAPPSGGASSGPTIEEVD

EC50 [16] | EC50 [17] | Structure (SMILES) | IC50 [1] | EC50 [2] | IC50 (Bcl-2-like protein 10) | IC50 [3] | EC50 [4] | IC50 [5] | IC50 (Large T antigen) | IC50 [6] | IC50 [7] | IC50 [8] | IC50 [9] | IC50 [10] | IC50 [11] | IC50 [12] | IC50 [13] | IC50 [14] | IC50 [15]
 |  | Cc1ccc2c(c1C)NC(C(=O)O)C1CC=CC21 (centres undefined) | 5.43 µM (active) | 37.4 µM (active) | 1.89 µM (active) | 80.8 µM (active) | 21.7 µM (active) | 21.9 µM (active) | 91.4 µM (active) | 7.18 µM (active) | 6.2 µM (active) | > 10 µM (not active) | 3.17 µM (active) | 8.68 µM (active) | 5.96 µM (active) | 1.7 µM (active) | 0.858 µM (active) | 30.3 µM (inactive) | 6.55 µM (active)
> 100 µM (inactive) | > 100 µM (inactive) | O=C(O)C1CC(c2ccccc2O)=NO1 (centres undefined) |  |  |  |  |  |  |  |  |  |  |  |  |  |  |  |  | 
